The target of experiment [1] is Cyclin-dependent kinase 2 (Homo sapiens) (UniProt P24941). As to the kind of experiment: Inhibition of CDK2 Lys2 labeling site in human A-375 cells at 5 uM by KiNativ Profiling analysis relative to control. It is filed as cell-based.
The target of experiment [2] is T1, Inhibitor of nuclear factor kappa-B kinase subunit epsilon (Homo sapiens) (UniProt Q14164).
T1 sequence (whole entry): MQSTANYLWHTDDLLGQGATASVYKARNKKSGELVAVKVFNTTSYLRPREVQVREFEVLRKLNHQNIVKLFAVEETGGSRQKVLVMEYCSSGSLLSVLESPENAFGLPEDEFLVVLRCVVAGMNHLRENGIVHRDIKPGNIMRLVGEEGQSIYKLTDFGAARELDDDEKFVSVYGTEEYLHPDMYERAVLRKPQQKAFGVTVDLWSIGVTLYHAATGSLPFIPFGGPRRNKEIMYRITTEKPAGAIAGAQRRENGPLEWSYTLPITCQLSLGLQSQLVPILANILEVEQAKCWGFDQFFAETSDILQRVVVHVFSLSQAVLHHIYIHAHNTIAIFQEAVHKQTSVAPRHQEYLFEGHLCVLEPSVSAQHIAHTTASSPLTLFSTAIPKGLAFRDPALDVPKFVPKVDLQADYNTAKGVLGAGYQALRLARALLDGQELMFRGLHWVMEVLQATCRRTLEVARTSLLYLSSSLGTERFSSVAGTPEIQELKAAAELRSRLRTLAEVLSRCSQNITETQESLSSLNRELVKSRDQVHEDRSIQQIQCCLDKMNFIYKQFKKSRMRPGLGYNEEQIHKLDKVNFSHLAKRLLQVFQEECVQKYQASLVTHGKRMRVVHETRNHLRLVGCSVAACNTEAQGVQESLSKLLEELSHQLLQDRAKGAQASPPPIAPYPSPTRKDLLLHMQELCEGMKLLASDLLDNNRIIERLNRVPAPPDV
As to the kind of experiment: Inhibition of IKKe Lys2 labeling site in human A-375 cells at 5 uM by KiNativ Profiling analysis relative to control. It is filed as cell-based.

For experiment [3], the target named is Phosphatidylinositol 4,5-bisphosphate 3-kinase catalytic subunit alpha isoform (Homo sapiens) (UniProt P42336). As to the kind of experiment: Inhibition of PIK3CA ATP labeling site in human A-375 cells at 0.5 uM by KiNativ Profiling analysis relative to control. Format: cell-based.
Experiment [4] concerns the target Mitogen-activated protein kinase kinase kinase 12 (Homo sapiens) (UniProt Q12852). Put plainly: Inhibition of DLK (unknown origin) at 1 uM by Ambit Kinomescan binding assay relative to control.
In experiment [5] the target is Mitogen-activated protein kinase 3 (Homo sapiens) (UniProt P27361). As to the kind of experiment: Inhibition of ERK1 (unknown origin) at 1 uM by Ambit Kinomescan binding assay relative to control; values are per cent of control.
Chain of Mitogen-activated protein kinase 3 (Homo sapiens) (P27361 whole entry): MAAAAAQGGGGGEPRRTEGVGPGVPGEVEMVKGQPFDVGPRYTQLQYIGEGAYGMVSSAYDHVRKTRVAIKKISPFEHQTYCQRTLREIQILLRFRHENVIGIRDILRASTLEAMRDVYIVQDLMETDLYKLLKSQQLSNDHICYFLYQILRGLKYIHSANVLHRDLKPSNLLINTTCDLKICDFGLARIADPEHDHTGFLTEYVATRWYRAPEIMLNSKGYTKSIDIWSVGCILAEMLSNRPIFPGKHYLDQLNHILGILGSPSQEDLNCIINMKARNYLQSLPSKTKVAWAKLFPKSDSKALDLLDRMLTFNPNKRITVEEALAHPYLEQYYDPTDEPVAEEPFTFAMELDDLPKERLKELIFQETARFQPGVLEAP
Experiment [6] deals with Serine/threonine-protein kinase Nek4 (Homo sapiens) (UniProt P51957). As to the kind of experiment: Inhibition of NEK4 (unknown origin) at 1 uM by Ambit Kinomescan binding assay relative to control; values are per cent of control.
Experiment [7] concerns the target Serine/threonine-protein kinase MARK1 (Homo sapiens) (UniProt Q9P0L2). Put plainly: Inhibition of MARK1 (unknown origin) at 1 uM by Ambit Kinomescan binding assay relative to control; values are per cent of control.
The target in experiment [8] is 3-phosphoinositide-dependent protein kinase 1 (Homo sapiens) (UniProt O15530). As to the kind of experiment: Inhibition of PDPK1 (unknown origin) at 1 uM by Ambit Kinomescan binding assay relative to control; values are per cent of control.
Chain of 3-phosphoinositide-dependent protein kinase 1 (Homo sapiens) (O15530 whole entry): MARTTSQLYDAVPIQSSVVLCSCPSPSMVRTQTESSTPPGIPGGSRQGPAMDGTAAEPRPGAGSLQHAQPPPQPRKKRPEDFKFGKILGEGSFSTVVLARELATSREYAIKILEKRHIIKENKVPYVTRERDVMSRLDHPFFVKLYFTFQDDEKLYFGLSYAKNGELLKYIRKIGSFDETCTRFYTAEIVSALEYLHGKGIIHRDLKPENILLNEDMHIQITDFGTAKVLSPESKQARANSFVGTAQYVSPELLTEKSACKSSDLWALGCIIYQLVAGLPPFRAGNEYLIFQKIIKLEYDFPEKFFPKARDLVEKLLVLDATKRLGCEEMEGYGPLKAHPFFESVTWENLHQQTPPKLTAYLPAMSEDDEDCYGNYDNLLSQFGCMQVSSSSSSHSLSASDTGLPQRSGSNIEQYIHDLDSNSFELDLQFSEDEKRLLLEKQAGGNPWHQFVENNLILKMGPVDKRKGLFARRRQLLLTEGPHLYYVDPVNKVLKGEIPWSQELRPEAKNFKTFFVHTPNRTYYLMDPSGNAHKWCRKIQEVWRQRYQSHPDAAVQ
Experiment [9] deals with Mast/stem cell growth factor receptor Kit (Homo sapiens), P10721 [A829P]. Put plainly: Inhibition of KIT A829P mutant (unknown origin) at 1 uM by Ambit Kinomescan binding assay relative to control; values are per cent of control.
Chain of Mast/stem cell growth factor receptor Kit (Homo sapiens), P10721 [A829P] (P10721 whole entry A829P): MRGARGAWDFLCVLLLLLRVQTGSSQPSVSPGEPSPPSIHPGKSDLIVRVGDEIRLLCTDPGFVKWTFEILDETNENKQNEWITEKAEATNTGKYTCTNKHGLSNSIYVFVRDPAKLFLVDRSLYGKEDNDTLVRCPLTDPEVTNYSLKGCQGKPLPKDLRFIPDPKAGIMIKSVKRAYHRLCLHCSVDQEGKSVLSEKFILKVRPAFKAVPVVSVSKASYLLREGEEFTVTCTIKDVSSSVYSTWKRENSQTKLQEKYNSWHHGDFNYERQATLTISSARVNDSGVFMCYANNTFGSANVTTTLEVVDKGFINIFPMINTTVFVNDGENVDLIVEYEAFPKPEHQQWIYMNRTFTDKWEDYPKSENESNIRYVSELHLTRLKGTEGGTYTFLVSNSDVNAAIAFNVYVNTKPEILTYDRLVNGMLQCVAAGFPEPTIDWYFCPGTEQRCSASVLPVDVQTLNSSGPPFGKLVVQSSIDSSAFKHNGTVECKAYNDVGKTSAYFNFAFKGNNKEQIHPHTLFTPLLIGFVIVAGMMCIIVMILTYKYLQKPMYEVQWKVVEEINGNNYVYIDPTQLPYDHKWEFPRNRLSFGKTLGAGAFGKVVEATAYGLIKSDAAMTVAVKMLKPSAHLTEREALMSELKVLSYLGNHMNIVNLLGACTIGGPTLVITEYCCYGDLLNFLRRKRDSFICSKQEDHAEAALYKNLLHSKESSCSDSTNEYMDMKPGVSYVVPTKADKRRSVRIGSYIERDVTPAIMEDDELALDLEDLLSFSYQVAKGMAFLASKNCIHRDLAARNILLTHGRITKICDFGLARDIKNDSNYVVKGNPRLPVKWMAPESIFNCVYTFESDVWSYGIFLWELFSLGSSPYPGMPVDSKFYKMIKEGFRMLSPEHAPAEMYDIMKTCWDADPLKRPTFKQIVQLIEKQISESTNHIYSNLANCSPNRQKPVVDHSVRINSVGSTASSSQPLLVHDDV
The target in experiment [10] is Cyclin-dependent kinase 15 (Homo sapiens) (UniProt Q96Q40). As to the kind of experiment: Inhibition of PFTAIRE2 (unknown origin) at 10 uM by Ambit Kinomescan binding assay relative to control.
Chain of Cyclin-dependent kinase 15 (Homo sapiens) (Q96Q40 whole entry): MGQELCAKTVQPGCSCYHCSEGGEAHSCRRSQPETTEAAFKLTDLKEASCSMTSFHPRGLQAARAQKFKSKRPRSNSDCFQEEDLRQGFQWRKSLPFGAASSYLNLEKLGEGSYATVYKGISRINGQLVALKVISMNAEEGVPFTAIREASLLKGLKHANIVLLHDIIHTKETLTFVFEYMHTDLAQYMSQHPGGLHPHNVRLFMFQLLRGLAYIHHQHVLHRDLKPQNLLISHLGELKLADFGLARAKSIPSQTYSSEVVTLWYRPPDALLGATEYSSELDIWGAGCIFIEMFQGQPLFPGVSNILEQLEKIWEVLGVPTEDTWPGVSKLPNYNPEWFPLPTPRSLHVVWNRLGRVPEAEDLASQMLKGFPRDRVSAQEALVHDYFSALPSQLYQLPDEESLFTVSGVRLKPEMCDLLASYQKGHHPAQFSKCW
Experiment [11] addresses Dual specificity mitogen-activated protein kinase kinase 2 (Homo sapiens) (UniProt P36507). As to the kind of experiment: Inhibition of MAP2K2 Lys2 labeling site in human A-375 cells at 5 uM by KiNativ Profiling analysis relative to control. Format: cell-based.
Experiment [12] addresses Serine/threonine-protein kinase A-Raf (Homo sapiens) (UniProt P10398). Put plainly: Inhibition of ARAF Lys2 labeling site in human A-375 cells at 0.05 uM by KiNativ Profiling analysis relative to control. It is filed as cell-based.
Experiment [13] addresses Serine/threonine-protein kinase SMG1 (Homo sapiens) (UniProt Q96Q15). As to the kind of experiment: Inhibition of SMG1 ATP labeling site harbouring DTVTIHSVGGTITILPTKTKPK in human A-375 cells at 0.05 uM by KiNativ Profiling analysis relative to control. It is filed as cell-based.
Experiment [14] concerns the target Mitogen-activated protein kinase 14 (Homo sapiens, UniProt Q16539). Put plainly: Inhibition of p38a in human Huh-7 cells at 10 uM by KiNativ Profiling analysis relative to control. It is filed as cell-based.
Experiment [15] concerns the target AMPK alpha1/alpha2 (Homo sapiens) (UniProt P54646+Q13131). As to the kind of experiment: Inhibition of AMPK alpha 1/2 K1 labeling site in human Huh-7 cells at 10 uM by KiNativ Profiling analysis relative to control. Format: cell-based.
Experiment [16] can be described thus: Inhibition of KHS1/2 K2 labeling site in human Huh-7 cells at 10 uM by KiNativ Profiling analysis relative to control. The following applies: condition cancer.
Experiment [17] addresses Rho-associated protein kinase (Homo sapiens) (UniProt O75116+Q13464). Put plainly: Inhibition of ROCK1/2 K2 labeling site in human Huh-7 cells at 1 uM by KiNativ Profiling analysis relative to control. Format: cell-based.
Experiment [18] has as its target Tyrosine-protein kinase Lyn (Homo sapiens, UniProt P07948). As to the kind of experiment: Inhibition of LYN (unknown origin) at 10 uM by Ambit Kinomescan binding assay relative to control; values are per cent of control.
The target of experiment [19] is Tyrosine-protein kinase Srms (Homo sapiens) (UniProt Q9H3Y6). Put plainly: Inhibition of SRMS (unknown origin) at 10 uM by Ambit Kinomescan binding assay relative to control; values are per cent of control.
For experiment [20], the target named is DNA-PK/Ku70/Ku85 (Homo sapiens) (UniProt P78527+P12956+P13010). As to the kind of experiment: Inhibition of DNAPK ATP labeling site harbouring KGGSWIQEINVAEKNWYPR in human Huh-7 cell lysate at 1 uM by KiNativ Profiling analysis relative to control. Format: subcellular.
Experiment [21] deals with Serine/threonine-protein kinase 24 (Homo sapiens) (UniProt Q9Y6E0). As to the kind of experiment: Inhibition of MST3 Lys2 labeling site harbouring DIKAANVLLSEHGEVK in human Huh-7 cells at 1 uM by KiNativ Profiling analysis relative to control. Format: cell-based.
Chain of Serine/threonine-protein kinase 24 (Homo sapiens) (Q9Y6E0 whole entry, looked up): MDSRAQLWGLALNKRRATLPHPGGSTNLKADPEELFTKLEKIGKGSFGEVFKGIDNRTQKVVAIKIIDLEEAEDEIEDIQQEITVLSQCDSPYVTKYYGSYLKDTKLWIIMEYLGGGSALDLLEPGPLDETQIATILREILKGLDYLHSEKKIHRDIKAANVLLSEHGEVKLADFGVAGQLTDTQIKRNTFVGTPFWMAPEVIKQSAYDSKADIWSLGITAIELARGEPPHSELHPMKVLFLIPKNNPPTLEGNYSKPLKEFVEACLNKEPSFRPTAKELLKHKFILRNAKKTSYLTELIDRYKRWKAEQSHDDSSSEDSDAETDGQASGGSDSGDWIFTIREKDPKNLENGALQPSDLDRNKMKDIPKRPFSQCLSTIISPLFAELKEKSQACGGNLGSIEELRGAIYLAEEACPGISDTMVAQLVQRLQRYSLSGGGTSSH

Chain of Serine/threonine-protein kinase MARK1 (Homo sapiens) (Q9P0L2 whole entry, looked up): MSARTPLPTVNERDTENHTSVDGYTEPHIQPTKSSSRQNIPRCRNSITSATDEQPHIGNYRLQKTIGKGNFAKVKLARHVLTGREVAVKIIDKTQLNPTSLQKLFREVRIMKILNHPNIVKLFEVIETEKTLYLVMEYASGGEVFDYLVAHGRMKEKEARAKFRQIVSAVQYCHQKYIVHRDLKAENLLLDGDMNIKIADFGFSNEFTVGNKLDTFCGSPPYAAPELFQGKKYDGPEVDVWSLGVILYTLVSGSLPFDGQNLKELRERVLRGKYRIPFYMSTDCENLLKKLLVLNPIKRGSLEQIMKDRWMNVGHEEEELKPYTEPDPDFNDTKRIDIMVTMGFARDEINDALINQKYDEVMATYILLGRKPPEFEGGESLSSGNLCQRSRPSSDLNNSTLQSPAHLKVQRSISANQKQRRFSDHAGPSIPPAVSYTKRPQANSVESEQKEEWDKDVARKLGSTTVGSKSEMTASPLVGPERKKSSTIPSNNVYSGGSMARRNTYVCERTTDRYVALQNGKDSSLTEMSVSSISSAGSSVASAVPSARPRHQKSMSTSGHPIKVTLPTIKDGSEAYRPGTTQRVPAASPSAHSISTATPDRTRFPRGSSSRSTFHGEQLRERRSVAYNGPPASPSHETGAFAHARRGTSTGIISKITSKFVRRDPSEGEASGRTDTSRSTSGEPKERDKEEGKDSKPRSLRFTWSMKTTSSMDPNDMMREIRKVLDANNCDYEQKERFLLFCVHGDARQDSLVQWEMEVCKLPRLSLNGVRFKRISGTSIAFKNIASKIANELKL
Chain of Serine/threonine-protein kinase A-Raf (Homo sapiens) (P10398 whole entry): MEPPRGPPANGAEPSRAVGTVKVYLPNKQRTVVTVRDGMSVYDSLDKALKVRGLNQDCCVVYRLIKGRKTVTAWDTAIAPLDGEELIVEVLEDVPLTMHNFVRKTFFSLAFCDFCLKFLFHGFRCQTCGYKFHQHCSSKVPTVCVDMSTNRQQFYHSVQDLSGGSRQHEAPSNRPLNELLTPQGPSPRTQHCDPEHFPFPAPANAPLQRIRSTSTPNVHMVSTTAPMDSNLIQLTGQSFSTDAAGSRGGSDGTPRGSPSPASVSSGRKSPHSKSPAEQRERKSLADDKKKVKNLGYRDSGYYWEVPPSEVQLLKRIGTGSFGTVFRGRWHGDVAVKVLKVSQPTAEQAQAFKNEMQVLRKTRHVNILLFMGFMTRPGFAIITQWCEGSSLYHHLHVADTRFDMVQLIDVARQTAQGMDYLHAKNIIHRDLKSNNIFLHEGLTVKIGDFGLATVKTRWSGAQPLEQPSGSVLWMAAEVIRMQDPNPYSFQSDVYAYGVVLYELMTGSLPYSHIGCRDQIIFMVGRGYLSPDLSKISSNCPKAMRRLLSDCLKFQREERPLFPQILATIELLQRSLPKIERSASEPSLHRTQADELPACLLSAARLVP
Chain of Tyrosine-protein kinase Lyn (P07948 2-512 limits assumed): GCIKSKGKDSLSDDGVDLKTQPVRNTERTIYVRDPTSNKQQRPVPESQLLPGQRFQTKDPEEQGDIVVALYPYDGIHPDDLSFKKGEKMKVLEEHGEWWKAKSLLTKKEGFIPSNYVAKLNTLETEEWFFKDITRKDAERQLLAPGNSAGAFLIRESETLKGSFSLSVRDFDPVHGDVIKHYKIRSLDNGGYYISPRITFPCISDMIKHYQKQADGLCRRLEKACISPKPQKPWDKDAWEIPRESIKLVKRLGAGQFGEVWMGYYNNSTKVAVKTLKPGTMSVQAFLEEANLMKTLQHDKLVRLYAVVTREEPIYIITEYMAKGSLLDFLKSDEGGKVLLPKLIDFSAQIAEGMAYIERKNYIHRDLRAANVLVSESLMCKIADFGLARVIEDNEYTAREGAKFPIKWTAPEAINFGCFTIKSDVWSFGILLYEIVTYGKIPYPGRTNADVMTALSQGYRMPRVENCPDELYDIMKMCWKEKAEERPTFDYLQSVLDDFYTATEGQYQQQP

As to `CCN1CCN(Cc2ccc(NC(=O)c3ccc(C)c(/C=C/c4cnc5[nH]ccc5c4OC)c3)cc2C(F)(F)F)CC1`, the inhibition (usually the drop in the measured response relative to a control, in per cent) in experiment [1] is 3.4%; in experiment [2] it was 37.6%; in experiment [3], 34.5%; in [4], 74%. Moreover, the residual activity in experiment [5] is 100%; in experiment [6], 100%; in experiment [7], 100%; in experiment [8], 100%; in experiment [9] it was 8%.

Take `CCN1CCN(Cc2ccc(NC(=O)c3ccc(C)c(Oc4ccnc5[nH]ccc45)c3)cc2C(F)(F)F)CC1`: the inhibition in [10] is 6%; in experiment [11], -10%; in experiment [12], 39.3%; in experiment [13], 2.3%; in [14] it was 98.5%; in experiment [15] it was 34.6%. Besides, the inhibition in experiment [17] came out at 13.7%. The inhibition at 10 µM in experiment [16] was determined as 6.6%. This molecule also showed a percent of control in experiment [18] of 0.75%. This molecule registered a residual activity in experiment [19] of 4.6%.

As to `CNc1cc(Oc2cc(C(=O)Nc3cc(N4CCN(C)CC4)cc(C(F)(F)F)c3)ccc2C)ncn1`, the inhibition in [20] amounted to 15.9%; in [21], 4.3%.

Values taken from ChEMBL document CHEMBL5696442, “Discovery of type II inhibitors of TGFβ-activated kinase 1 (TAK1) and mitogen-activated protein kinase kinase kinase kinase 2 (MAP4K2)” (J Med Chem, 2015).
